Tests used:
[1] = target: T1, SNAP-CB2R (Homo sapiens, UniProt P34972); assay: Homogeneous HTRF competition binding in living HEK-293T cells (fluorophore-conjugated CM-157); conditions: living HEK-293T cells expressing SNAP-CB2R, 20 nM fluorescent ligand
T1 construct: host or cells: HEK-293T, transient transfection (PEI)

[2] = target: T2, CB2R in a CB1–CB2 receptor heteromer context (Homo sapiens, UniProt P34972); assay: Homogeneous HTRF competition binding in living HEK-293T cells expressing SNAP-CB2R and CB1R; conditions: 20 nM fluorescent ligand, read-out: Ki, HTRF competition of fluorophore-conjugated CM-157 in the presence of CB1R
T2 construct: host or cells: HEK-293T, transient co-transfection (PEI)

[3] = target: T1, SNAP-CB2R; parameters: method as in Martínez-Pinilla et al., 2016; conditions: HTRF binding to CB2R; ref Martínez-Pinilla et al., 2016; read-out: KD used in the Cheng and Prusoff equation for homogeneous binding; cited from earlier work

T1 sequence (P34972 whole entry): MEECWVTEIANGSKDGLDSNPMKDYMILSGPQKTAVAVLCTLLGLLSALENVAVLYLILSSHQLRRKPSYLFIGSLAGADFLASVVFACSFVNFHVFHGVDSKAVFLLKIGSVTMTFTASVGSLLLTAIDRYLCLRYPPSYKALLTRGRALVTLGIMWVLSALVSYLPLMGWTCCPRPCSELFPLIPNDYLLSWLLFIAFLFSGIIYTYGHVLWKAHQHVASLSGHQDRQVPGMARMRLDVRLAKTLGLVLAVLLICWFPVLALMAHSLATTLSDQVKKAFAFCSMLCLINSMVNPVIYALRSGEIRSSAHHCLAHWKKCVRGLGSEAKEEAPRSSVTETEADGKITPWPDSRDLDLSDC
T2 sequence (P34972 whole entry): as above
T2 sequence (P21554 whole entry partner): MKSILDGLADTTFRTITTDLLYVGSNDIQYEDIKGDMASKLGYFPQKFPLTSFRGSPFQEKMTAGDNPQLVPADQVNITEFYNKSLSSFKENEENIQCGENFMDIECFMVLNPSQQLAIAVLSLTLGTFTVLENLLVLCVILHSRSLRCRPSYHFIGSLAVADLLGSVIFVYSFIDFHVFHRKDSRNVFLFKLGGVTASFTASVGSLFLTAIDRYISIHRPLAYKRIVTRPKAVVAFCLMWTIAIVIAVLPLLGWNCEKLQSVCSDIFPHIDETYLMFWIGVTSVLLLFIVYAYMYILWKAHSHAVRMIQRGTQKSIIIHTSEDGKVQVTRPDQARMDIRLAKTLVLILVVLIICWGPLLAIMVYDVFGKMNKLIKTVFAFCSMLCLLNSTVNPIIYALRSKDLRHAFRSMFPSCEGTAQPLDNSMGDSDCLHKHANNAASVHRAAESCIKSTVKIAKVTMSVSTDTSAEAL

With `CC(C)(C)c1nc2cc(S(=O)(=O)c3ccnc(OCCCN)c3)ccc2n1CC1CCOCC1` [CM-157, 3-[[4-[2-tert-butyl-1-(tetrahydropyran-4-ylmethyl)benzimidazol-5-yl]sulfonyl-2-pyridyl]oxy]propan-1-amine, reference compound] as the compound, how does the Ki [1] read?
Its Ki is 16 nM.

And the Ki [2]?
Its Ki is 19 nM.

And the Kd [3]?
The Kd was 21 nM.

Reference: PMC6021502, “Cannabigerol Action at Cannabinoid CB1 and CB2 Receptors and at CB1–CB2 Heteroreceptor Complexes” (Frontiers in Pharmacology, 2018)
